System: 293T-HRE-GFP-luc cells
Assay: Cell-based reporter assay for IC50 determinations
Settings: hypoxia 6 hrs (1% O2), luminescence, read-out: IC50 Classification
In short: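 IC50 comes from a four-parameter logistic fit of luminescence from HRE-GFP-luc 293T cells. Compounds (1:3 series, 1:50 medium dilution) were preincubated 30 min under normoxia, followed by 6 h at 1% O2, 5% CO2, 37 °C, before Steadylite luciferase detection.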

Row | SMILES | IC50 [nM]
1 | Cc1nc(-c2nc(-c3ccc(OC(F)(F)F)cc3)no2)nn1Cc1cccc(N2CCNCC2)c1 [Example 81, 1-{3-[(5-Methyl-3-{3-[4-(trifluoromethoxy)phenyl]-1,2,4-oxadiazol-5-yl}-1H-1,2,4-triazol-1-yl)methyl]phenyl}piperazine] | < 100
2 | Cc1nc(-c2nc(-c3ccc(OC(F)(F)F)cc3)no2)nn1Cc1cccc(N2CCN(S(C)(=O)=O)CC2)c1 [Example 82, 1-Methanesulfonyl-4-{3-[(5-methyl-3-{3-[4-(trifluoromethoxy)phenyl]-1,2,4-oxadiazol-5-yl}-1H-1,2,4-triazol-1-yl)methyl]phenyl}piperazine] | < 100
3 | Cc1nc(-c2nc(-c3ccc(OC(F)(F)F)cc3)no2)nn1Cc1cccc(N2CCN(C(=O)CO)CC2)c1 [Example 83, 2-Hydroxy-1-(4-{3-[(5-methyl-3-{3-[4-(trifluoromethoxy)phenyl]-1,2,4-oxadiazol-5-yl}-1H-1,2,4-triazol-1-yl)methyl]phenyl}piperazin-1-yl)ethan-1-one] | < 100
4 | C=Cc1cccc(Cn2nc(-c3nc(-c4ccc(OC(F)(F)F)cc4)no3)nc2C)c1 [Example 84, 5-{1-[(3-Ethenylphenyl)methyl]-5-methyl-1H-1,2,4-triazol-3-yl}-3-[4-(trifluoromethoxy)phenyl]-1,2,4-oxadiazole] | 100 to 1000
5 | Cc1nc(-c2nc(-c3ccc(OC(F)(F)F)cc3)no2)nn1Cc1cccc(C(O)CO)c1 (stereo not shown) [Example 85, 1-{3-[(5-Methyl-3-{3-[4-(trifluoromethoxy)phenyl]-1,2,4-oxadiazol-5-yl}-1H-1,2,4-triazol-1-yl)methyl]phenyl}ethane-1,2-diol] | < 100
6 | Cc1nc(-c2nc(-c3ccc(OC(F)(F)F)cc3)no2)nn1Cc1cccc(OCC(O)CO)c1 (stereo not shown) [Example 86, 3-{3-[(5-methyl-3-{3-[4-(trifluoromethoxy)phenyl]-1,2,4-oxadiazol-5-yl}-1H-1,2,4-triazol-1-yl)methyl]phenoxy}propane-1,2-diol] | < 100
7 | Cc1nc(-c2nc(-c3ccc(OC(F)(F)F)cc3)cs2)nn1Cc1ccnc(N2CCN(C)CC2)c1 [Example 87, 1-Methyl-4-{4-[(5-methyl-3-{4-[4-(trifluoromethoxy)phenyl]-1,3-thiazol-2-yl}-1H-1,2,4-triazol-1-yl)methyl]pyridin-2-yl}piperazine] | < 100
8 | Cc1nc(-c2nc(-c3ccc(OC(F)(F)F)cc3)cs2)nn1Cc1cccc(S(C)(=O)=O)c1 [Example 88, 1-[(3-Methanesulfonylphenyl)methyl]-5-methyl-3-{4-[4-(trifluoromethoxy)phenyl]-1,3-thiazol-2-yl}-1H-1,2,4-triazole] | 100 to 1000
9 | Cc1nc(-c2nc(-c3ccc(OC(F)(F)F)cc3)cs2)nn1Cc1cccc(C(=O)N(C)C)c1 [Example 89, N,N-Dimethyl-3-[(5-methyl-3-{4-[4-(trifluoromethoxy)phenyl]-1,3-thiazol-2-yl}-1H-1,2,4-triazol-1-yl)methyl]benzamide] | 100 to 1000
10 | COCCOc1cccc(Cn2nc(-c3nc(-c4ccc(OC(F)(F)F)cc4)cs3)nc2C)c1 [Example 90, 1-{[3-(2-Methoxyethoxy)phenyl]methyl}-5-methyl-3-{4-[4-(trifluoromethoxy)phenyl]-1,3-thiazol-2-yl}-1H-1,2,4-triazole] | 100 to 1000
11 | Cc1nc(-c2nc(-c3ccc(OC(F)(F)F)cc3)cs2)nn1Cc1cccc(OCCO)c1 [Example 91, 2-{3-[(5-Methyl-3-{4-[4-(trifluoromethoxy)phenyl]-1,3-thiazol-2-yl}-1H-1,2,4-triazol-1-yl)methyl]phenoxy}ethan-1-ol] | 100 to 1000
12 | Cc1nc(-c2ncc(-c3ccc(OC(F)(F)F)cc3)o2)nn1Cc1ccnc(N2CCN(C)CC2)c1 [Example 92, 1-Methyl-4-{4-[(5-methyl-3-{5-[4-(trifluoromethoxy)phenyl]-1,3-oxazol-2-yl}-1H-1,2,4-triazol-1-yl)methyl]pyridin-2-yl}piperazine] | < 100
13 | Cc1nc(-c2ncc(-c3ccc(OC(F)(F)F)cc3)o2)nn1Cc1ccnc(N2CCOCC2)c1 [Example 93, 4-{4-[(5-methyl-3-{5-[4-(trifluoromethoxy)phenyl]-1,3-oxazol-2-yl}-1H-1,2,4-triazol-1-yl)methyl]pyridin-2-yl}morpholine] | 100 to 1000
14 | Cc1nc(-c2cc(-c3ccc(OC(F)(F)F)cc3)no2)nn1Cc1cccc(N2CCC(S(C)(=O)=O)CC2)c1 [Example 94, 5-(5-Methyl-1-(3-(4-(methylsulfonyl)piperidin-1-yl)benzyl)-1H-1,2,4-triazol-3-yl)-3-(4-(trifluoromethoxy)phenyl)isoxazole] | < 100
15 | Cc1nc(-c2cc(-c3ccc(OC(F)(F)F)cc3)no2)nn1Cc1ccnc(N2CCC(S(C)(=O)=O)CC2)c1 [Example 95, 5-(5-Methyl-1-((2-(4-(methylsulfonyl)piperidin-1-yl)pyridin-4-yl)methyl)-1H-1,2,4-triazol-3-yl)-3-(4-(trifluoromethoxy)phenyl)isoxazole] | < 100
16 | Cc1nc(-c2cc(-c3ccc(OC(F)(F)F)cc3)on2)nn1Cc1cccc(N2CCC(S(C)(=O)=O)CC2)c1 [Example 96, 3-(5-Methyl-1-(3-(4-(methylsulfonyl)piperidin-1-yl)benzyl)-1H-1,2,4-triazol-3-yl)-5-(4-(trifluoromethoxy)phenyl)isoxazole] | < 100

Row | SMILES | IC50 [nM]
17 | Cc1nc(-c2cc(-c3ccc(OC(F)(F)F)cc3)on2)nn1Cc1ccnc(N2CCC(S(C)(=O)=O)CC2)c1 [Example 97, 3-(5-Methyl-1-((2-(4-(methylsulfonyl)piperidin-1-yl)pyridin-4-yl)methyl)-1H-1,2,4-triazol-3-yl)-5-(4-(trifluoromethoxy)phenyl)isoxazole] | 100 to 1000
18 | Cc1nc(-c2nnc(-c3ccc(C(C)(C)C)cc3)o2)nn1Cc1cccc(N2CCOCC2)c1 [Example 98, 4-(3-((3-(5-(4-(tert-butyl)phenyl)-1,3,4-oxadiazol-2-yl)-5-methyl-1H-1,2,4-triazol-1-yl)methyl)phenyl)morpholine] | < 100
19 | Cc1nc(-c2nc(-c3ccc(OC(F)(F)F)cc3)no2)nn1Cc1cncnc1 [Example 99, 5-(5-methyl-1-(pyrimidin-5-ylmethyl)-1H-1,2,4-triazol-3-yl)-3-(4-(trifluoromethoxy)phenyl)-1,2,4-oxadiazole] | 1000 to 10000
20 | Cc1cccc(Cn2nc(-c3nc(-c4ccc(OC(F)(F)F)cc4)no3)nc2C)c1 [Example 100, 5-(5-methyl-1-(3-methylbenzyl)-1H-1,2,4-triazol-3-yl)-3-(4-(trifluoromethoxy)phenyl)-1,2,4-oxadiazole] | 1000 to 10000
21 | COc1cccc(Cn2nc(-c3nc(-c4ccc(OC(F)(F)F)cc4)no3)nc2C)c1 [Example 101, 5-(1-(3-methoxybenzyl)-5-methyl-1H-1,2,4-triazol-3-yl)-3-(4-(trifluoromethoxy)phenyl)-1,2,4-oxadiazole] | 100 to 1000
22 | Cc1nc(-c2nc(-c3ccc(OC(F)(F)F)cc3)no2)nn1Cc1cccc(C(F)(F)F)c1 [Example 102, 5-(5-methyl-1-(3-(trifluoromethyl)benzyl)-1H-1,2,4-triazol-3-yl)-3-(4-(trifluoromethoxy)phenyl)-1,2,4-oxadiazole] | 1000 to 10000
23 | Cc1nc(-c2nc(-c3ccc(OC(F)(F)F)cc3)no2)nn1Cc1cccc(OC(F)F)c1 [Example 103, 5-(1-(3-(difluoromethoxy)benzyl)-5-methyl-1H-1,2,4-triazol-3-yl)-3-(4-(trifluoromethoxy)phenyl)-1,2,4-oxadiazole] | 100 to 1000
24 | Cc1nc(-c2nc(-c3ccc(OC(F)(F)F)cc3)no2)nn1Cc1cccc(S(N)(=O)=O)c1 [Example 104, 3-((5-methyl-3-(3-(4-(trifluoromethoxy)phenyl)-1,2,4-oxadiazol-5-yl)-1H-1,2,4-triazol-1-yl)methyl)benzenesulfonamide] | 100 to 1000
25 | Cc1nc(-c2nc(-c3ccc(OC(F)(F)F)cc3)no2)nn1Cc1ccc(S(N)(=O)=O)cc1 [Example 105, 4-((5-methyl-3-(3-(4-(trifluoromethoxy)phenyl)-1,2,4-oxadiazol-5-yl)-1H-1,2,4-triazol-1-yl)methyl)benzenesulfonamide] | 100 to 1000
26 | Cc1nc(-c2nc(-c3ccc(OC(F)(F)F)cc3)no2)nn1Cc1cccc(S(C)(=O)=O)c1 [Example 106, 5-(5-methyl-1-(3-(methylsulfonyl)benzyl)-1H-1,2,4-triazol-3-yl)-3-(4-(trifluoromethoxy)phenyl)-1,2,4-oxadiazole] | < 100
27 | Cc1nc(-c2nc(-c3ccc(OC(F)(F)F)cc3)no2)nn1Cc1cccc(C#N)c1 [Example 107, 3-((5-methyl-3-(3-(4-(trifluoromethoxy)phenyl)-1,2,4-oxadiazol-5-yl)-1H-1,2,4-triazol-1-yl)methyl)benzonitrile] | 100 to 1000
28 | Cc1cccc(Cn2nc(-c3nc(-c4ccc(OC(F)(F)F)cc4)no3)nc2C)n1 [Example 108, 5-(5-methyl-1-((6-methylpyridin-2-yl)methyl)-1H-1,2,4-triazol-3-yl)-3-(4-(trifluoromethoxy)phenyl)-1,2,4-oxadiazole] | 1000 to 10000
29 | Cc1nc(-c2nc(-c3ccc(OC(F)(F)F)cc3)no2)nn1Cc1ccc(C(C)C)cc1 [Example 109, 5-(1-(4-isopropylbenzyl)-5-methyl-1H-1,2,4-triazol-3-yl)-3-(4-(trifluoromethoxy)phenyl)-1,2,4-oxadiazole] | 100 to 1000
30 | Cc1nc(-c2nc(-c3ccc(OC(F)(F)F)cc3)no2)nn1Cc1cccc2c1cnn2C [Example 110, 5-(5-methyl-1-((1-methyl-1H-indazol-4-yl)methyl)-1H-1,2,4-triazol-3-yl)-3-(4-(trifluoromethoxy)phenyl)-1,2,4-oxadiazole] | 100 to 1000
31 | Cc1nc(-c2nc(-c3ccc(OC(F)(F)F)cc3)no2)nn1Cc1ccc2c(c1)OCO2 [Example 111, 5-(1-(benzo[d][1,3]dioxol-5-ylmethyl)-5-methyl-1H-1,2,4-triazol-3-yl)-3-(4-(trifluoromethoxy)phenyl)-1,2,4-oxadiazole] | 100 to 1000
